PubChem BioAssay (NCI)
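Dose response: 5 concentrations. Exposure: 48 h. Format: 96-well plates. Endpoint: linear interpolation; highest concentration if not reached. Abbreviation: GI50, concentration required for 50% inhibition of growth. TGI denotes the concentration required for complete inhibition of growth.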

What was measured:
Assay in all cases: inhibition of tumour cell growth, NCI panel, 48 h
HOP-92 NSCLC = test system: HOP-92 NSCLC
HCC-2998 colon = test system: HCC-2998 colon
KM12 colon = test system: KM12 colon
SF-268 CNS = test system: SF-268 CNS
COLO 205 colon = test system: COLO 205 colon
SK-MEL-2 melanoma = test system: SK-MEL-2 melanoma
UACC-62 melanoma = test system: UACC-62 melanoma
ACHN renal = test system: ACHN renal
SNB-19 CNS = test system: SNB-19 CNS
OVCAR-5 ovarian = test system: OVCAR-5 ovarian
SF-295 CNS = test system: SF-295 CNS
PC-3 prostate = test system: PC-3 prostate
UACC-257 melanoma = test system: UACC-257 melanoma
SW-620 colon = test system: SW-620 colon
K-562 leukemia = test system: K-562 leukemia
HCT-116 colon = test system: HCT-116 colon
NCI/ADR-RES ovarian = test system: NCI/ADR-RES ovarian
SF-539 CNS = test system: SF-539 CNS
OVCAR-8 ovarian = test system: OVCAR-8 ovarian
MOLT-4 leukemia = test system: MOLT-4 leukemia
HOP-62 NSCLC = test system: HOP-62 NSCLC
CCRF-CEM leukemia = test system: CCRF-CEM leukemia
SNB-75 CNS = test system: SNB-75 CNS
BT-549 breast = test system: BT-549 breast
SN12C renal = test system: SN12C renal
OVCAR-4 ovarian = test system: OVCAR-4 ovarian
NCI-H23 lung = test system: NCI-H23 lung
IGROV1 ovarian = test system: IGROV1 ovarian
NCI-H460 lung = test system: NCI-H460 lung
RPMI-8226 leukemia = test system: RPMI-8226 leukemia
M14 melanoma = test system: M14 melanoma
U251 CNS = test system: U251 CNS
HS 578T breast = test system: HS 578T breast
SR leukemia = test system: SR leukemia
SK-OV-3 ovarian = test system: SK-OV-3 ovarian
HCT-15 colon = test system: HCT-15 colon
SK-MEL-28 melanoma = test system: SK-MEL-28 melanoma
LOX IMVI melanoma = test system: LOX IMVI melanoma
MDA-MB-435 = test system: MDA-MB-435
MCF7 breast = test system: MCF7 breast
OVCAR-3 ovarian = test system: OVCAR-3 ovarian
MDA-MB-231 breast = test system: MDA-MB-231 breast
786-0 renal = test system: 786-0 renal
UO-31 renal = test system: UO-31 renal
DU-145 prostate = test system: DU-145 prostate
A549 NSCLC = test system: A549 NSCLC
HT29 colon = test system: HT29 colon
A498 renal = test system: A498 renal
NCI-H226 lung = test system: NCI-H226 lung
RXF 393 renal = test system: RXF 393 renal
SK-MEL-5 melanoma = test system: SK-MEL-5 melanoma
CAKI-1 renal = test system: CAKI-1 renal
NCI-H522 lung = test system: NCI-H522 lung

## COc1ccc(-c2[nH]ncc2-c2cc(OC)c(OC)c(OC)c2)cc1
HOP-92 NSCLC
  GI50: < 10 nM
  TGI: 901 nM
HCC-2998 colon
  GI50: 14.7 nM
  TGI: 19200 nM
KM12 colon
  GI50: < 10 nM
  TGI: 13100 nM
SF-268 CNS
  GI50: < 12.7 nM
  TGI: > 38100 nM
COLO 205 colon
  GI50: < 10 nM
  TGI: < 10 nM
SK-MEL-2 melanoma
  GI50: < 10 nM
  TGI: 517 nM
UACC-62 melanoma
  GI50: < 10 nM
  TGI: 22500 nM
ACHN renal
  GI50: < 10 nM
  TGI: > 42900 nM
SNB-19 CNS
  GI50: < 10 nM
  TGI: > 100000 nM
OVCAR-5 ovarian
  GI50: < 18 nM
  TGI: > 47700 nM
SF-295 CNS
  GI50: < 10 nM
  TGI: < 10 nM
PC-3 prostate
  GI50: < 10 nM
  TGI: 32500 nM
UACC-257 melanoma
  TGI: > 50300 nM
SW-620 colon
  GI50: < 10 nM
  TGI: > 41500 nM
K-562 leukemia
  GI50: < 10 nM
  TGI: > 34400 nM
HCT-116 colon
  GI50: < 10 nM
  TGI: 12200 nM
NCI/ADR-RES ovarian
  GI50: < 10 nM
  TGI: 1930 nM
SF-539 CNS
  GI50: < 10 nM
  TGI: < 12.8 nM
OVCAR-8 ovarian
  GI50: < 12.4 nM
  TGI: > 33200 nM
MOLT-4 leukemia
  GI50: 30.8 nM
  TGI: 4660 nM
HOP-62 NSCLC
  GI50: < 10 nM
  TGI: > 100000 nM
CCRF-CEM leukemia
  GI50: < 16.3 nM
  TGI: 28800 nM
SNB-75 CNS
  GI50: < 10 nM
  TGI: 21000 nM
BT-549 breast
  GI50: 14.3 nM
  TGI: 4450 nM
SN12C renal
  TGI: > 81800 nM
OVCAR-4 ovarian
  GI50: < 39.7 nM
  TGI: 29600 nM
NCI-H23 lung
  GI50: 10.3 nM
  TGI: 26700 nM
IGROV1 ovarian
  GI50: < 10 nM
  TGI: 7730 nM
NCI-H460 lung
  GI50: < 10 nM
  TGI: 1300 nM
RPMI-8226 leukemia
  GI50: 13.2 nM
  TGI: 16000 nM
M14 melanoma
  GI50: < 10 nM
  TGI: 852 nM
U251 CNS
  GI50: < 10 nM
  TGI: 6110 nM
HS 578T breast
  GI50: < 10 nM
  TGI: 7240 nM
SR leukemia
  GI50: < 10 nM
  TGI: 19500 nM
SK-OV-3 ovarian
  GI50: < 10 nM
  TGI: 20500 nM
HCT-15 colon
  GI50: < 10 nM
  TGI: > 80600 nM
SK-MEL-28 melanoma
  GI50: < 18.5 nM
  TGI: 33600 nM
LOX IMVI melanoma
  GI50: < 10 nM
  TGI: 44400 nM
MDA-MB-435
  GI50: < 10 nM
  TGI: < 10 nM
MCF7 breast
  GI50: < 10 nM
  TGI: 22500 nM
OVCAR-3 ovarian
  GI50: < 10 nM
MDA-MB-231 breast
  GI50: 27.1 nM
786-0 renal
  GI50: < 10 nM
  TGI: 13900 nM
UO-31 renal
  GI50: < 10 nM
  TGI: 11200 nM
DU-145 prostate
  GI50: < 10 nM
  TGI: 1640 nM
A549 NSCLC
  GI50: < 10 nM
  TGI: > 38000 nM
HT29 colon
  GI50: < 10 nM
  TGI: 32.6 nM
A498 renal
  GI50: < 10 nM
  TGI: < 12.7 nM
NCI-H226 lung
  GI50: < 14.8 nM
  TGI: 34800 nM
RXF 393 renal
  GI50: < 10 nM
  TGI: 17800 nM
SK-MEL-5 melanoma
  GI50: < 10 nM
  TGI: 55.1 nM
CAKI-1 renal
  GI50: < 10 nM
  TGI: 25000 nM
NCI-H522 lung
  GI50: < 10 nM
  TGI: < 10 nM
